# Where a name gives a salt, the structure may show the parent alone.
# Tested on: Acinetobacter baumannii ATCC17961
# Assay: Antimicrobial susceptibility testing: 90% growth inhibitory concentration (IC90) determination, Iso-Sensitest broth
# Format: cell-based
# Settings: Acinetobacter baumannii, ATCC17961, 90% growth inhibitory concentration, Acinetobacter baumannii ATCC17961, Iso-Sensitest broth; read-out: ATCC 17961 IC90
# Method: The in vitro antimicrobial activity of the compounds was determined according to the following procedure:
# The assay used a 10-points Iso-Sensitest broth medium to measure quantitatively the in vitro activity of the compounds against Acinetobacter baumannii ATCC17978 or ATCC17961.
# Stock compounds in DMSO were serially twofold diluted (e.g. range from 10 to 0.02 μM final concentration) in 384 wells microtiter plates and inoculated with 49 μl the bacterial suspension in Iso-Sensitest medium to have a final cell concentration of ˜5×10^(5) CFU/ml in a final volume/well of 50 ul/well. Microtiter plates were incubated at 35±2° C.
# Bacterial cell growth was determined with the measurement of optical density at k=600 nm each 20 minutes over a time course of 16 h. Growth inhibition was calculated during the logarithmic growth of the bacterial cells with determination of the concentration inhibiting 50% (IC50) and 90% (IC90) of the growth.
# Table 1 provides the 90% growth inhibitory concentrations (IC90) in micromoles per liter of the compounds of present invention obtained against the strain Acinetobacter baumannii ATCC17978 or ATCC17961.
row,IC90 [nM],SMILES
1,30,"Cn1c(-c2ccc(OC(F)F)c(F)c2F)cnc1C(=O)Nc1ccc(C(=O)N2CCC(C(=O)N[C@H]3CNC[C@H]3F)CC2)c(Cl)c1 [Example 44, 1-[2-chloro-4-[[5-[4-(difluoromethoxy)-2,3-difluoro-phenyl]-1-methyl-imidazole-2-carbonyl]amino]benzoyl]-N-[(3S,4R)-4-fluoropyrrolidin-3-yl]piperidine-4-carboxamide trifluoroacetate]"
2,30,"Cn1c(-c2ccc(OCF)c(F)c2F)cnc1C(=O)Nc1ccc(C(=O)N2CCC(C(=O)N[C@H]3CNC[C@H]3F)CC2)c(Cl)c1 [Example 51, 1-[2-chloro-4-[[5-[2,3-difluoro-4-(fluoromethoxy)phenyl]-1-methyl-imidazole-2-carbonyl]amino]benzoyl]-N-[(3S,4R)-4-fluoropyrrolidin-3-yl]piperidine-4-carboxamide trifluoroacetate]"
3,50,"Cn1c(-c2ccc(OCF)c(F)c2Cl)cnc1C(=O)Nc1ccc(C(=O)N2CCC(C(=O)N[C@@H]3CNC[C@H]3O)CC2)c(Cl)c1 [Example 53, 1-[2-chloro-4-[[5-[2-chloro-3-fluoro-4-(fluoromethoxy)phenyl]-1-methyl-imidazole-2-carbonyl]amino]benzoyl]-N-[(3R,4R)-4-hydroxypyrrolidin-3-yl]piperidine-4-carboxamide formate]"
4,40,"Cn1c(-c2ccc(OCF)c(F)c2F)cnc1C(=O)Nc1ccc(C(=O)N2CCC(C(=O)NC[C@@H]3CCNC3)CC2)c(Cl)c1 [Example 54, 1-[2-chloro-4-[[5-[2,3-difluoro-4-(fluoromethoxy)phenyl]-1-methyl-imidazole-2-carbonyl]amino]benzoyl]-N-[[(3R)-pyrrolidin-3-yl]methyl]piperidine-4-carboxamide formate]"
5,50,"COc1ccc(-c2cnc(C(=O)Nc3ccc(C(=O)N4CCC(C(=O)NC[C@@H]5CCNC5)CC4)c(Cl)c3)n2C)c(F)c1F [Example 55, 1-[2-chloro-4-[[5-(2,3-difluoro-4-methoxy-phenyl)-1-methyl-imidazole-2-carbonyl]amino]benzoyl]-N-[[(3R)-pyrrolidin-3-yl]methyl]piperidine-4-carboxamide formate]"
6,70,"COc1ccc(-c2cnc(C(=O)Nc3ccc(C(=O)N4CCC(C(=O)NC[C@H]5CCNC5)CC4)c(Cl)c3)n2C)c(F)c1F [Example 56, 1-[2-chloro-4-[[5-(2,3-difluoro-4-methoxy-phenyl)-1-methyl-imidazole-2-carbonyl]amino]benzoyl]-N-[[(3S)-pyrrolidin-3-yl]methyl]piperidine-4-carboxamide formate]"
7,60,"COc1ccc(-c2cnc(C(=O)Nc3ccc(C(=O)N4CCC(C(=O)NCC5(O)CNC5)CC4)c(Cl)c3)n2C)c(F)c1F [Example 57, 1-[2-chloro-4-[[5-(2,3-difluoro-4-methoxy-phenyl)-1-methyl-imidazole-2-carbonyl]amino]benzoyl]-N-[(3-hydroxyazetidin-3-yl)methyl]piperidine-4-carboxamide formate]"
8,50,"COc1ccc(-c2cnc(C(=O)Nc3ccc(C(=O)N4CCC(C(=O)N[C@H]5CCNC5)CC4)c(Cl)c3)n2C)c(F)c1F [Example 58, 1-[2-chloro-4-[[5-(2,3-difluoro-4-methoxy-phenyl)-1-methyl-imidazole-2-carbonyl]amino]benzoyl]-N-[(3S)-pyrrolidin-3-yl]piperidine-4-carboxamide formate]"
9,50,"COc1ccc(-c2cnc(C(=O)Nc3ccc(C(=O)N4CCC(C(=O)N[C@H]5[C@@H]6CNC[C@@H]65)CC4)c(Cl)c3)n2C)c(F)c1F [Example 59, N-[(1S,5R)-3-azabicyclo[3.1.0]hexan-6-yl]-1-[2-chloro-4-[[5-(2,3-difluoro-4-methoxy-phenyl)-1-methyl-imidazole-2-carbonyl]amino]benzoyl] piperidine-4-carboxamide formate]"
10,50,"COc1ccc(-c2cnc(C(=O)Nc3ccc(C(=O)N4CCC(C(=O)N[C@@H]5CNC[C@H]5O)CC4)c(Cl)c3)n2C)c(F)c1F [Example 60, 1-[2-chloro-4-[[5-(2,3-difluoro-4-methoxy-phenyl)-1-methyl-imidazole-2-carbonyl]amino]benzoyl]-N-[(3R,4R)-4-hydroxypyrrolidin-3-yl]piperidine-4-carboxamide formate]"
11,60,"Cn1c(-c2ccc(OC(F)F)c(F)c2F)cnc1C(=O)Nc1ccc(C(=O)N2CCC(C(=O)N[C@H]3[C@@H]4CNC[C@@H]43)CC2)c(Cl)c1 [Example 61, N-[(1S,5R)-3-azabicyclo[3.1.0]hexan-6-yl]-1-[2-chloro-4-[[5-[4-(difluoromethoxy)-2,3-difluoro-phenyl]-1-methyl-imidazole-2-carbonyl]amino]benzoyl] piperidine-4-carboxamide formate]"

# The remaining lines, values behind:
row,SMILES,IC90 [nM]
1,"COc1ccc(-c2cnc(C(=O)Nc3ccc(C(=O)N4CCC(C(=O)N5CC(CCN)C5)CC4)c(Cl)c3)n2C)c(F)c1F [Example 40, N-[4-[4-[3-(2-aminoethyl)azetidine-1-carbonyl]piperidine-1-carbonyl]-3-chloro-phenyl]-5-(2,3-difluoro-4-methoxy-phenyl)-1-methyl-imidazole-2-carboxamide formate]",70
2,"COc1ccc(-c2cnc(C(=O)Nc3ccc(C(=O)N4CC5(CC(C(=O)N6CCN[C@@H](CO)C6)C5)C4)c(Cl)c3)n2C)c(F)c1F [Example 41, N-[3-chloro-4-[6-[(3R)-3-(hydroxymethyl)piperazine-1-carbonyl]-2-azaspiro[3,3]heptane-2-carbonyl]phenyl]-5-(2,3-difluoro-4-methoxy-phenyl)-1-methyl-imidazole-2-carboxamide]",140
3,"COc1ccc(-c2cnc(C(=O)Nc3ccc(C(=O)N4CC5(CNC5)C4)c(Cl)c3)n2C)c(F)c1F [Example 42, N-[3-chloro-4-(2,6-diazaspiro[3.3]heptane-2-carbonyl)phenyl]-5-(2,3-difluoro-4-methoxy-phenyl)-1-methyl-imidazole-2-carboxamide trifluoroacetate]",170
4,"CN(C)C1CN(C(=O)C2CCN(C(=O)c3ccc(NC(=O)c4ncc(-c5ccc(OC(F)F)c(F)c5F)n4C)cc3Cl)CC2)C1 [Example 43, N-[3-chloro-4-[4-[3-(dimethylamino)azetidine-1-carbonyl]piperidine-1-carbonyl]phenyl]-5-[4-(difluoromethoxy)-2,3-difluoro-phenyl]-1-methyl-imidazole-2-carboxamide trifluoioacetate]",90
5,"Cn1c(-c2ccc(OC(F)F)c(F)c2F)cnc1C(=O)Nc1ccc(C(=O)N2CCC(C(=O)N3CC[C@@H](N)C3)CC2)c(Cl)c1 [Example 45, N-[4-[4-[(3R)-3-aminopyrrolidine-1-carbonyl]piperidine-1-carbonyl]-3-chloro-phenyl]-5-[4-(difluoromethoxy)-2,3-difluoro-phenyl]-1-methyl-imidazole-2-carboxamide trifluoroacetate]",80
6,"Cn1c(-c2ccc(OC(F)F)c(F)c2F)cnc1C(=O)Nc1ccc(C(=O)N2CCC(C(=O)N3CC[C@H](N)C3)CC2)c(Cl)c1 [Example 46, N-[4-[4-[(3S)-3-aminopyrrolidine-1-carbonyl]piperidine-1-carbonyl]-3-chloro-phenyl]-5-[4-(difluoromethoxy)-2,3-difluoro-phenyl]-1-methyl-imidazole-2-carboxamide trifluoroacetate]",70
7,"Cn1c(-c2ccc(OC(F)F)c(F)c2F)cnc1C(=O)Nc1ccc(C(=O)N2CCC(C(=O)NC[C@@H]3CCNC3)CC2)c(Cl)c1 [Example 47, 1-[2-chloro-4-[[5-[4-(difluoromethoxy)-2,3-difluoro-phenyl]-1-methyl-imidazole-2-carbonyl]amino]benzoyl]-N-[[(3R)-pyrrolidin-3-yl]methyl]piperidine-4-carboxamide trifluoroacetate]",40
8,"Cn1c(-c2ccc(OC(F)F)c(F)c2F)cnc1C(=O)Nc1ccc(C(=O)N2CCC(C(=O)NC[C@H]3CCNC3)CC2)c(Cl)c1 [Example 48, 1-[2-chloro-4-[[5-[4-(difluoromethoxy)-2,3-difluoro-phenyl]-1-methyl-imidazole-2-carbonyl]amino]benzoyl]-N-[[(3S)-pyrrolidin-3-yl]methyl]piperidine-4-carboxamide trifluoroacetate]",40
9,"Cn1c(-c2ccc(OC(F)F)c(F)c2F)cnc1C(=O)Nc1ccc(C(=O)N2CCC(C(=O)N3CCC(C(N)=O)C3)CC2)c(Cl)c1 (stereo not shown) [Example 49, N-[4-[4-(3-carbamoylpyrrolidine-1-carbonyl)piperidine-1-carbonyl]-3-chloro-phenyl]-5-[4-(difluoromethoxy)-2,3-difluoro-phenyl]-1-methyl-imidazole-2-carboxamide trifluoroacetate]",150
10,"Cn1c(-c2ccc(OC(F)F)c(F)c2F)cnc1C(=O)Nc1ccc(C(=O)N2CCC(C(=O)N[C@H]3CNC[C@@H]3O)CC2)c(Cl)c1 [Example 50, 1-[2-chloro-4-[[5-[4-(difluoromethoxy)-2,3-difluoro-phenyl]-1-methyl-imidazole-2-carbonyl]amino]benzoyl]-N-[(3S,4S)-4-hydroxypyrrolidin-3-yl]piperidine-4-carboxamide trifluoroacetate]",50
11,"CN1CCC(NNC(=O)C2CCN(C(=O)c3ccc(NC(=O)c4ncc(-c5ccc(OCF)c(F)c5F)n4C)cc3Cl)CC2)CC1 [Example 52, N-[3-chloro-4-[4-[[(1-methyl-4-piperidyl)amino]carbamoyl]piperidine-1-carbonyl]phenyl]-5-[2,3-difluoro-4-(fluoromethoxy)phenyl]-1-methyl-imidazole-2-carboxamide trifluoroacetate]",130

# — patent US20220396565A1 (Hoffmann-La Roche Inc., priority 2020, published 2022)
